In assay [1] the target is T1, human norepinephrine transporter (Homo sapiens, UniProt P23975).
T1 construct: expressed in transfected cells; host or cells: HEK-293
Put plainly: hNET receptor binding ([125I]-RTI-55 radioligand). The settings on record: membranes of HEK-293 cells transfected with human norepinephrine transporter cDNA; 50 pM [125I]-RTI-55; IC50 converted by Cheng-Prusoff; read-out: NET Ki. How it is done: Cell pastes of HEK-293 cells transfected with a human norepinephrine transporter cDNA were prepared. The cell pastes were resuspended in 400 to 700 ml of Krebs-HEPES assay buffer (25 mM HEPES, 122 mM NaCl, 3 mM KCl, 1.2 mM MgSO4, 1.3 mM CaCl2, and 11 mM glucose, pH 7.4) with a Polytron homogenizer at setting 7 for 30 seconds. Aliquots of membranes (5 mg/ml protein) were stored in liquid nitrogen until used.
The binding assay was set up in Beckman deep-well polypropylene plates with a total volume of 250 μl containing: test compound (10^−5M to 10^−12M), cell membranes, and 50 pM [^125I]-RTI-55 (Perkin Elmer, NEX-272; specific activity 2200 Ci/mmol). The reaction was incubated by gentle agitation for 90 minutes at room temperature and was terminated by filtration through Whatman GF/C filter plates using a Brandel 96-well plate harvester. Scintillation fluid (100 μl) was added to each well, and bound [^125I]-RTI-55 was determined using a Wallac Trilux Beta Plate Counter. Test compounds were run in duplicate, and specific binding was defined as the difference between binding in the presence and absence of 10 μM desipramine.
Excel and GraphPad Prism software were used for data calculation and analysis. IC50 values were converted to K, values using the Cheng-Prusoff equation.

The target in assay [2] is T2, human serotonin transporter (Homo sapiens, UniProt P31645).
T2 construct: expressed in transfected cells; host or cells: HEK-293
Put plainly: hSERT receptor binding ([125I]-RTI-55 radioligand). The settings on record: membranes of HEK-293 cells transfected with human serotonin transporter cDNA; 50 pM [125I]-RTI-55; IC50 converted by Cheng-Prusoff; read-out: SERT Ki. The method, then: Cell pastes of HEK-293 cells transfected with a human serotonin transporter cDNA were prepared. The cell pastes were resuspended in 400 to 700 ml of Krebs-HEPES assay buffer (25 mM HEPES, 122 mM NaCl, 3 mM KCl, 1.2 mM MgSO4, 1.3 mM CaCl2, and 11 mM glucose, pH 7.4) with a Polytron homogenizer at Setting 7 for 30 seconds. Aliquots of membranes (˜2.5 mg/ml protein) were stored in liquid nitrogen until used.
Assays were set up in FlashPlates pre-coated with 0.1% PEI in a total volume of 250 μl containing: test compound (10^−5M to 10^−12M), cell membranes, and 50 pM [^125I]-RTI-55 (Perkin Elmer, NEX-272; specific activity 2200 Ci/mmol). The reaction was incubated and gently agitated for 90 minutes at room temperature, and terminated by removal of assay volume. Plates were covered, and bound [^125I]-RTI-55 was determined using a Wallac Trilux Beta Plate Counter. Test compounds were run in duplicate, and specific binding was defined as the difference between binding in the presence and absence of 10 μM citalopram.
Excel and GraphPad Prism software were used for data calculation and analysis. IC50 values were converted to Ki values using the Cheng-Prusoff equation.

A value given as a limit tells only on which side of the number the result lay.

Drawing on patent US20090215857A1 (Pfizer Products Inc., priority 2005, published 2009), this text covers Ki for 31 molecules.

T2 sequence (P31645 whole entry): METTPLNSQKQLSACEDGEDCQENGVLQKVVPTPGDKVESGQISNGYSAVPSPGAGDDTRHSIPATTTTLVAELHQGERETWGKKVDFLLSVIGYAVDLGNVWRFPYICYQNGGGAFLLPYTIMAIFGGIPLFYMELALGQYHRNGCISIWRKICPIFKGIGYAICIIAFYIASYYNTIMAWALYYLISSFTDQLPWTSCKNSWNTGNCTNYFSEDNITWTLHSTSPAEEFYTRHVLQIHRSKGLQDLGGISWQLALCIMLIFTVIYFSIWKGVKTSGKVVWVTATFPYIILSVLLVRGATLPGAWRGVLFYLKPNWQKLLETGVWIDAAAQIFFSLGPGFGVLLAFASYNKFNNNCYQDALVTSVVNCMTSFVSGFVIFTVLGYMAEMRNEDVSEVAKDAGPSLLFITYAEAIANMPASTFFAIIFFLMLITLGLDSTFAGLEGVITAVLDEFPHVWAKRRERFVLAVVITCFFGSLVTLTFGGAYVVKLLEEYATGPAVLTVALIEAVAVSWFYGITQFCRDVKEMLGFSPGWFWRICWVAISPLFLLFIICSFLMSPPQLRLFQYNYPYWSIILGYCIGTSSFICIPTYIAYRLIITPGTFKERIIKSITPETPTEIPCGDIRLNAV
T1 sequence (P23975 whole entry): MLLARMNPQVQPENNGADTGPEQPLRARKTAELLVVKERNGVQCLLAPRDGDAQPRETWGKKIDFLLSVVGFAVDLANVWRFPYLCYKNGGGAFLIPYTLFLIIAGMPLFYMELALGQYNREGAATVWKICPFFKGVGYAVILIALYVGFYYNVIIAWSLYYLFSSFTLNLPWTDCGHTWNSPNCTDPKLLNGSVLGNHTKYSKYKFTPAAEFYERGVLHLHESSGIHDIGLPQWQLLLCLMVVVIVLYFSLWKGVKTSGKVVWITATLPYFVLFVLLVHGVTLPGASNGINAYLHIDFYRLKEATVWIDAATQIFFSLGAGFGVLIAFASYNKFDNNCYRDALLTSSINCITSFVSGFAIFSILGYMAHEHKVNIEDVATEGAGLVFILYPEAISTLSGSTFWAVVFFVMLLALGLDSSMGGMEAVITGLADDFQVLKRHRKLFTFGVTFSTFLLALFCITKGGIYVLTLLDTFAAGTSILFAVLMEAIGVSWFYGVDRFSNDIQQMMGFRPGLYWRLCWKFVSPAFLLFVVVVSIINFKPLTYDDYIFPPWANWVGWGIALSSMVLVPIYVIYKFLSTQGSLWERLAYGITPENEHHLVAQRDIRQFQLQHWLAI

One may read the Ki as a dissociation constant, usually derived from enzyme kinetics or from competition with a known ligand. As to `c1ccc(-c2ccccc2-c2ccccc2CO[C@H]2CCNC2)cc1` [Example D-34, (S)-3-([1,1′,2′,1″]Terphenyl-2-ylmethoxy)-pyrrolidine], the Ki in assay [1] amounted to 554 nM; in assay [2] it was 2750 nM.
Take `Cc1cccc(-c2ccccc2CO[C@H]2CCNC2)c1C` [Example D-35, (S)-3-(2′,3′-Dimethyl-biphenyl-2-ylmethoxy)-pyrrolidine]: the Ki in assay [1] was 585 nM; in assay [2], 59.6 nM.
`COc1ccc(-c2ccccc2CO[C@H]2CCNC2)cc1OC` [Example D-36, (S)-3-(3′,4′-Dimethoxy-biphenyl-2-ylmethoxy)-pyrrolidine]: the Ki stood at 635 nM in assay [1] and 150 nM in assay [2].
For the molecule `FC(F)(F)Oc1ccccc1-c1ccccc1CO[C@H]1CCNC1` [Example D-37, (S)-3-(2′-Trifluoromethoxy-biphenyl-2-ylmethoxy)-pyrrolidine], the results for the Ki in assay [1] and in assay [2] were 1000 nM and 5650 nM, respectively.
With `OCc1cccc(-c2ccccc2CO[C@H]2CCNC2)c1` [Example D-38, (S)-[2′-(Pyrrolidin-3-yloxymethyl)-biphenyl-3-yl]-methanol], the Ki in assay [1] turned out to be 1190 nM; in assay [2] it was 39.3 nM.
`CCOc1ccc(-c2ccccc2CO[C@H]2CCNC2)cc1` [Example D-40, (S)-3-(4′-Ethoxy-biphenyl-2-ylmethoxy)-pyrrolidine]: the Ki in assay [1] is 1260 nM; in assay [2] it was 919 nM.
In the same order, the values of `CC(=O)c1cccc(-c2ccccc2CO[C@H]2CCNC2)c1` [Example D-41] are 1280 nM and 345 nM.
For the molecule `CC(=O)c1ccccc1-c1ccccc1CO[C@H]1CCNC1` [Example D-42, (S)-1-[2′-(Pyrrolidin-3-yloxymethyl)-biphenyl-2-yl]-ethanone], the figures for the Ki in assay [1] and in assay [2] were 2540 nM and ≥ 10000 nM, respectively.
In the same order, the values of `FC(F)(F)Oc1ccc(-c2ccccc2CO[C@H]2CCNC2)cc1` [Example D-43, (S)-3-(4′-Trifluoromethoxy-biphenyl-2-ylmethoxy)-pyrrolidine] are 2670 nM and 16.9 nM.
In the same order, the values of `COc1ccc(Cl)cc1-c1ccccc1CO[C@H]1CCNC1` [Example D-44, (S)-3-(5′-Chloro-2′-methoxy-biphenyl-2-ylmethoxy)-pyrrolidine] are 3340 nM and 12.4 nM.
In the same order, the values of `c1cc(-c2ccccc2CO[C@H]2CCNC2)cc(-n2cccn2)c1` [Example D-45, (S)-1-[2′-(Pyrroldin-3-yloxymethyl)-biphenyl-3-yl]-1H-pyrazole] are 3340 nM and 12.4 nM.
For the molecule `c1ccc(-c2ccc3c(c2)OCCO3)c(CO[C@H]2CCNC2)c1` [Example D-46], the values for the Ki in assay [1] and in assay [2] were 3880 nM and 3760 nM, respectively.
For the molecule `CC(=O)c1ccc(-c2ccccc2CO[C@H]2CCNC2)cc1` [Example D-47, (S)-1-[2′-(Pyrrolidin-3-yloxymethyl)-biphenyl-4-yl]-ethanone], the Ki in assay [1] is 4120 nM; in assay [2], 906 nM.
Take `c1ccc(COc2ccccc2-c2ccccc2CO[C@H]2CCNC2)cc1` [Example D-48, (S)-3-(2′-Benzyloxy-biphenyl-2-ylmethoxy)-pyrrolidine]: the inhibitory constant (Ki) is 4180 nM in assay [1] and ≥ 10000 nM in assay [2].
`COc1ccc(C(C)C)cc1-c1ccccc1CO[C@H]1CCNC1` [Example D-49, (S)-(5′-Isopropyl-2′-methoxy-biphenyl-2-ylmethoxy)-pyrrolidine]: the values for the Ki in assay [1] and in assay [2] were 4230 nM and 2970 nM, respectively.
Turning to `c1ccc(-c2ccc3c(c2)OCCCO3)c(CO[C@H]2CCNC2)c1` [Example D-50, (S)-3-[2-(3,4-Dihydro-2H-benzo[b][1,4]dioxepin-7-yl)-benzyloxy]-pyrrolidine], the Ki amounted to 4450 nM in assay [1] and 709 nM in assay [2].
For `N#Cc1ccc(-c2ccccc2CO[C@H]2CCNC2)cc1` [Example D-51], the inhibitory constant (Ki) in assay [1] was found to be 5410 nM; in assay [2], 5460 nM.
With `N#Cc1ccccc1-c1ccccc1CO[C@H]1CCNC1` [Example D-52], the Ki in assay [1] and in assay [2] was ≥ 10000 nM in each case.
For `N#Cc1cccc(-c2ccccc2CO[C@H]2CCNC2)c1` [Example D-53], the Ki in assay [1] and in assay [2] was ≥ 10000 nM in each case.
For `COc1ccc(-c2ccccc2CO[C@H]2CCNC2)c(OC)c1` [Example D-54, (S)-3-(2′,4′-Dimethoxy-biphenyl-2-ylmethoxy)-pyrrolidine], the inhibitory constant (Ki) in assay [1] and in assay [2] was ≥ 10000 nM throughout.
Regarding `FC(F)(F)c1ccc(-c2ccccc2CO[C@H]2CCNC2)cc1` [Example D-55, (S)-3-(4′-Trifluoromethyl-biphenyl-2-ylmethoxy)-pyrrolidine], the inhibition constant Ki in assay [1] is ≥ 10000 nM; in assay [2] it was 201 nM.
`CC(C)Oc1ccc(-c2ccccc2CO[C@H]2CCNC2)cc1` [Example D-56, (S)-(4′-Isopropoxy-biphenyl-2-ylmethoxy)-pyrroldine]: the Ki in assay [1] was ≥ 10000 nM; in assay [2] it was 658 nM.
Turning to `COc1cc(-c2ccccc2CO[C@H]2CCNC2)cc(OC)c1OC` [Example D-57, (S)-3-(3′,4′,5′-Trimethoxy-biphenyl-2-ylmethoxy)-pyrrolidine], the Ki in assay [1] is ≥ 10000 nM; in assay [2], 589 nM.
For `CCS(=O)(=O)c1ccc(-c2ccccc2CO[C@H]2CCNC2)cc1` [Example D-58, (S)-3-(4′-Ethanesulfonyl-biphenyl-2-ylmethoxy)-pyrrolidine], the values for the Ki in assay [1] and in assay [2] were ≥ 10000 nM and 3030 nM, respectively.
For `Cc1cc(C)n(-c2cccc(-c3ccccc3CO[C@H]3CCNC3)c2)n1` [Example D-59, (S)-3,5-Dimethyl-1-[2′-(pyrrolidin-3-yloxymethyl)-biphenyl-3-yl]-1H-pyrazole], the Ki in assay [1] is ≥ 10000 nM; in assay [2], 57.8 nM.
On to `COc1cccc(-c2ccccc2CO[C@H]2CCNC2)c1C(=O)N(C(C)C)C(C)C` [Example D-60, (S)-3-Methoxy-2′-(pyrrolidin-3-yloxymethyl)-biphenyl-2-carboxylic acid diisopropylamide], for which the Ki in assay [1] is ≥ 10000 nM; in assay [2], 882 nM.
In the same order, the values of `COc1ccc(Cl)cc1-c1ccc(F)cc1CO[C@H]1CCNC1` [Example D-61, (S)-3-(5′-Chloro-4-fluoro-2′-methoxy-biphenyl-2-ylmethoxy)-pyrrolidine] are 993 nM and 794 nM.
`N#Cc1cccc(-c2ccc(F)cc2CO[C@H]2CCNC2)c1` [Example D-62, (S)-4′-Fluoro-2′-(pyrrolidin-3-yloxymethyl)-biphenyl-3-carbonitrile]: the Ki in assay [1] worked out at 480 nM; in assay [2] it was 319 nM.
As to `Cc1ccc(-c2ccc(F)cc2CO[C@H]2CCNC2)cc1` [Example D-63, (S)-3-(4-Fluoro-4′-methyl-biphenyl-2-ylmethoxy)-pyrrolidine], the figures for the inhibitory constant (Ki) in assay [1] and in assay [2] were 36.6 nM and 423 nM, respectively.
With `COc1ccc(F)cc1-c1ccc(F)cc1CO[C@H]1CCNC1` [Example D-64, (S)-3-(4,5′-Difluoro-2′-methoxy-biphenyl-2-ylmethoxy)-pyrroldine], the results for the inhibition constant Ki in assay [1] and in assay [2] were 1290 nM and 656 nM, respectively.
Turning to `Fc1ccc(-c2cc(Cl)cc(Cl)c2)c(CO[C@H]2CCNC2)c1` [Example D-65, (S)-3-(3′,5′-Dichloro-4-fluoro-biphenyl-2-ylmethoxy)-pyrrolidine], the Ki was 265 nM in assay [1] and 49.7 nM in assay [2].
